The text below walks through data of PMC12063173, “Metabolic Profiling of a Mediterranean-Inspired (Poly)phenol-Rich Mixture in the Brain: Perfusion Effect and In Vitro Blood–Brain Barrier Transport Validation” (Journal of Agricultural and Food Chemistry, 2025).

Data set [1] can be described thus: Targeted metabolomics (UPLC-ESI-QTOF) identification of metabolites in plasma, PB and NPB. The note with it: P plasma, PB perfused brain, NPB nonperfused brain, 1-24 h after oral capsule.
Protocol: Adult male Sprague–Dawley rats weighing 250–300 g were purchased from the Animal Experimentation Service of the University of Murcia (Murcia, Spain). […] Based on the experimental design shown in Figure 1, one capsule was administered by gavage to each fasting animal. A total of 40 animals were used in the study. Thirty animals received a capsule containing a mixture of different Mediterranean food extracts, while ten animals received a capsule with microcrystalline cellulose and served as the control group. […] To minimize animal use in accordance with the 3Rs principle, two control animals were sacrificed at each time point (one PB and one NPB). These controls served to identify potential endogenous compounds or background signals not related to the extract administration. All animals were fasted overnight prior to gavage and euthanized with carbon dioxide.
Plasma samples were extracted with ACN:formic acid (98:2, v/v), centrifuged and evaporated in a speed vacuum concentrator (Savant SPD14 0DDA). The evaporated samples were resuspended in 100 μL MeOH and filtered through 0.22 μm regenerated cellulose filters (Minisart Sartorius, Madrid, Spain). Next, half of the animals at each time point were perfused with ice-cold phosphate-buffered saline, and the blood-free brain was dissected out immediately and stored at – 80 °C until analysis, as previously reported.[37],[48]
Approximately 400 mg of brain tissue (perfused or nonperfused) was weighed and extensively washed with cold PBS to avoid external blood contamination. After weighting, the samples were placed in 2 mL screw cap tubes. […] The evaporated samples were resuspended in 100 μL MeOH and filtered through 0.22 μm regenerated cellulose filters.
We performed a targeted metabolomic analysis using an ultrahigh-performance liquid chromatographic system (UPLC) coupled to a quadrupole-time-of-flight (QTOF) mass spectrometer. The phenolic compounds were separated using an Agilent Poroshell 120 column (100 mm × 3 mm, 2.7 μm) and a 5 μL injection volume. […] The flow rate was set constant at 0.4 mL/min. The spectra were acquired in the m/z range from 100 to 1100, in negative polarity mode and an acquisition rate of 1.5 spectra per second. Quantitative data were processed using the Mass HunterQualitative Analysis software (version B.08.00, Agilent). A target screening strategy was applied for the qualitative analysis of possible metabolites derived from the consumption of the Mediterranean blend. […] These compounds encompass derived metabolites conjugated (glucuronides, sulfates, and sulfoglucuronides, among others). The exact mass of the proposed compound was extracted using an extraction window of 0.01 m/z. Metabolite quantification was performed by integrating the peak areas of their extracted ion chromatograms (EICs). Compounds with available standards were quantified using calibration curves derived from the respective standards, while other metabolites were semiquantified based on their peak area values.
Data set [2] is described as follows: Plasma pharmacokinetics of phenolic metabolites after oral capsule of (poly)phenol-rich Mediterranean extract mixture. The note with it: for AUC0-t plasma / MRT0-t plasma / T1/2 plasma / Tmax plasma: oral capsule, 0-24 h, n = 6 per time point.
Protocol: Adult male Sprague–Dawley rats weighing 250–300 g were purchased from the Animal Experimentation Service of the University of Murcia (Murcia, Spain). […] Animals were maintained in a temperature-controlled environment with a 12 h light-dark cycle. […] Based on the experimental design shown in Figure 1, one capsule was administered by gavage to each fasting animal. A total of 40 animals were used in the study. Thirty animals received a capsule containing a mixture of different Mediterranean food extracts, while ten animals received a capsule with microcrystalline cellulose and served as the control group. At each time point (1, 3, 6, 8, and 24 h postadministration), six animals from the extract group were sacrificed, three with transcardial perfusion using saline (PB) and three without perfusion (NPB), to assess the distribution of extract-derived metabolites in plasma and brain. To minimize animal use in accordance with the 3Rs principle, two control animals were sacrificed at each time point (one PB and one NPB). […] All animals were fasted overnight prior to gavage and euthanized with carbon dioxide.
Blood samples collected by cardiac puncture in sodium heparin tubes at each time point after sacrifice were immediately centrifuged at 14,000 × g for 15 min at 4 °C, and the plasma was stored at −80 °C until their analysis. Plasma samples were extracted with ACN:formic acid (98:2, v/v), centrifuged and evaporated in a speed vacuum concentrator (Savant SPD14 0DDA). The evaporated samples were resuspended in 100 μL MeOH and filtered through 0.22 μm regenerated cellulose filters (Minisart Sartorius, Madrid, Spain).
We performed a targeted metabolomic analysis using an ultrahigh-performance liquid chromatographic system (UPLC) coupled to a quadrupole-time-of-flight (QTOF) mass spectrometer. The phenolic compounds were separated using an Agilent Poroshell 120 column (100 mm × 3 mm, 2.7 μm) and a 5 μL injection volume. The mobile phases used were 0.1% formic acid in water (A) and 0.1% formic acid in ACN (B), and the gradient was: 0–3 min, 5–15% B; 3–11 min, 15–30% B; 11–14 min, 30–50% B, 14–16 min, 50–90% B. Finally, the B content was decreased to the initial conditions (5%) in 1 min, and the column re-equilibrated for 4 min. The flow rate was set constant at 0.4 mL/min. The spectra were acquired in the m/z range from 100 to 1100, in negative polarity mode and an acquisition rate of 1.5 spectra per second.
A short description of data set [3]: Nonperfused brain (NPB) kinetics of phenolic metabolites after oral capsule. The format is in vivo, Sprague–Dawley rats. More on the design: AUC0-t NPB: concentration or dose not given beside the values. The note with it: nonperfused brain, oral capsule, 0-24 h, n = 3 per time point. The source says:
(§1) Statistical analyses were applied depending on the experimental context.

Data set [4] can be described thus: Perfused brain (PB) kinetics of phenolic metabolites after oral capsule. The format is in vivo, Sprague–Dawley rats. More on the design: AUC0-t PB: concentration or dose not given beside the values. The note with it: for AUC0-t PB / Cmax PB / MRT0-t PB / T1/2 PB / Tmax PB / Tmax: perfused brain, oral capsule, 0-24 h, n = 3 per time point; for PB versus NPB comparison: perfused versus nonperfused brain; for Tmax: male, Sprague-Dawley, rat, 22 mg extract blend per capsule, one capsule per animal.
From the text: as §1

Where [5] appears, read: read-out: Cmax plasma, oral capsule, 0-24 h, n = 6 per time point.
The mark [6] stands for this setting: male, Sprague-Dawley, rat, 22 mg extract blend per capsule, one capsule per animal.
Where [7] appears, read: male, Sprague-Dawley, rat, po, 22 mg extract blend per capsule, one capsule per animal.

“Also recorded” adds a separate entry of the source. Counter-ions that a name gives are not always drawn. Like-named read-outs stand apart in the source and are kept apart here.

Consider hydroxyphenylacetic acid sulfate, for which the occurrence result in data set [1] is “PB, NPB, P”.

A word on the Cmax: it is the maximum level reached in the sampled fluid or tissue. For the compound `COc1ccc([C@@H]2CC(=O)c3c(O)cc(O[C@@H]4O[C@H](C(=O)O)[C@@H](O)[C@H](O)[C@H]4O)cc3O2)cc1O` [hesperetin 7-O-glucuronide], in data set [1], the occurrence result was “no detectable levels in PB or NPB”. In addition, in data set [2], the AUC0-t plasma was 0.036 ± 0.012 µM·h, the MRT0-t plasma was 11 ± 5.8 h, the T1/2 plasma is 7.4 ± 3.4 h and the Tmax plasma is on record as 4.2 ± 2.8 h. For the same compound, the Cmax in data set [2] (setting [5]) was 4 ± 0.7 nM.

As to `COc1ccc(C2CC(=O)c3c(O)cc(O)cc3O2)cc1O[C@@H]1O[C@H](C(=O)O)[C@@H](O)[C@H](O)[C@H]1O` (stereo partly drawn) [hesperetin 3′-O-glucuronide], the occurrence entry in data set [1] is reported as “no detectable levels in PB or NPB”. In addition, in data set [2], the AUC0-t plasma worked out at 0.011 ± 0.0013 µM·h, the MRT0-t plasma came out at 23.48 h, the T1/2 plasma is 14.80 h and the Tmax plasma came to 5.7 ± 2.7 h. Also, the Cmax in data set [2] (setting [5]) is 2.7 ± 0.9 nM.

Regarding “hydroxyphenyl propionic acid sulfate [hydroxyphenyl propionic acid sulfate peak-1]”, the occurrence entry in data set [1] is reported as “PB, NPB, P”.

Take `O=S(=O)(O)Oc1ccc(CCO)cc1O` [hydroxytyrosol 4′-O-sulfate]: in data set [1], the occurrence entry was “PB, NPB, P”. For the same compound, in data set [1] (listed as hydroxytyrosol 4′-sulfate), the occurrence result is “identified in plasma, perfused brain (PB), and nonperfused brain (NPB)”. Further, in data set [3], the “AUC0-t NPB” value is 84 ± 22 pmol·h/g, the “Cmax NPB” value is 6.3 ± 2.6 pmol/g tissue, the “MRT0-t NPB” value is reported as 26 ± 22 h and the “T1/2 NPB” value was 18 ± 14 h. Also, in data set [3], the “Tmax NPB” value came out at 2.3 ± 1.2 h. Also, in data set [2], the AUC0-t plasma was found to be 0.793 ± 0.403 µM·h, the MRT0-t plasma came to 3.4 ± 0.5 h, the T1/2 plasma is 3.0 ± 0.6 h and the Tmax plasma is on record as 1 ± 0 h. Also, in data set [2] (setting [5]), the Cmax came to 192 ± 76 nM. Moreover, in data set [4], the “AUC0-t PB” value was 52 ± 30 pmol·h/g, the “Cmax PB” value was 4.8 ± 1.5 pmol/g tissue, the “MRT0-t PB” value is given as 18 ± 14 h and the “T1/2 PB” value is listed as 12 ± 8.9 h. Also, the “Tmax PB” value in data set [4] is 2.3 ± 2.5 h.

For `O=S(=O)(O)Oc1cc(CCO)ccc1O` [hydroxytyrosol 3-O-sulfate], the occurrence result in data set [1] is reported as “PB, NPB, P”. Besides, in data set [1] (listed as hydroxytyrosol 3-sulfate), the occurrence result is “identified in plasma, perfused brain (PB), and nonperfused brain (NPB)”. Also, in data set [3], the “AUC0-t NPB” value was found to be 60 ± 8.4 pmol·h/g, the “Cmax NPB” value is listed as 9.7 ± 5.7 pmol/g tissue, the “MRT0-t NPB” value is on record as 7.1 ± 3.1 h and the “T1/2 NPB” value came to 7.0 ± 0.7 h. Besides, the “Tmax NPB” value in data set [3] is on record as 3.0 ± 0.0 h. Also, in data set [2], the AUC0-t plasma turned out to be 1.432 ± 0.648 µM·h, the MRT0-t plasma came to 4.3 ± 1.0 h, the T1/2 plasma amounted to 4.0 ± 2.3 h and the Tmax plasma was 1.4 ± 0.9 h. In data set [2] (setting [5]), the highest concentration (Cmax) amounted to 303 ± 45 nM. Also, in data set [4], the “AUC0-t PB” value turned out to be 16 ± 7.8 pmol·h/g, the “Cmax PB” value came out at 3.4 ± 3.1 pmol/g tissue, the “MRT0-t PB” value is listed as 11 ± 5.9 h and the “T1/2 PB” value was 7.3 ± 3.6 h. Moreover, the “Tmax PB” value in data set [4] was 2.7 ± 2.9 h.

In the case of `COc1cc(CCO)ccc1OS(=O)(=O)O` [homovanillic alcohol sulfate], the occurrence result in data set [1] is reported as “PB, NPB, P”. The “PB versus NPB comparison” value in data set [4] is “higher concentrations in PB”.

Turning to `COc1ccc(CCC(=O)O)cc1O` [3-(3′-hydroxy-4′-methoxyphenyl)propionic acid)], the occurrence entry in data set [1] is “PB, NPB, P”. Also, the “PB versus NPB comparison” value in data set [4] is recorded as “higher concentrations in PB”.

Consider `O=C1CCC(Cc2ccc(O)c(OS(=O)(=O)O)c2)O1` (stereo not drawn) [5-(3,4-dihydroxyphenylvalerolactone) sulfate], for which, in data set [1], the occurrence result is “undetectable in both PB and NPB”. Besides, in data set [1] (listed as 5-(3,4-dihydroxyphenyl)valerolactone sulfate), the occurrence result is “exclusively detected in plasma”. In data set [2], the AUC0-t plasma is 0.113 ± 0.078 µM·h, the MRT0-t plasma is reported as 31 ± 44 h, the T1/2 plasma came out at 19 ± 29 h and the Tmax plasma was 4.5 ± 1.7 h. Further, in data set [2] (setting [5]), the Cmax was found to be 12.1 ± 5 nM.

A word on the Tmax: it is the time at which the peak concentration occurs. What is called AUC(0-t) is the area under the concentration-time curve up to a stated or last time point. Consider `O=C(O)CCc1ccccc1O` [3-(2-hydroxyphenyl) propionic acid], for which the occurrence result in data set [1] is recorded as “PB, NPB, P”. Besides, in data set [1] (listed as 3-(2-hydroxyphenyl)propionic acid), the occurrence entry is “consistently detected in plasma and brain at all time points”. In addition, the Tmax in data set [3] (setting [6]) stood at 3.3 ± 4 h. Besides, in data set [3], the “AUC0-t NPB” value stood at 1.1 ± 0.8 pmol·h/g and the “Cmax NPB” value is recorded as 0.3 ± 0.04 pmol/g tissue. Further, in data set [2] (setting [7]), the AUC(0-t) amounted to 0.213 ± 0.053 µM·h, the Cmax worked out at 20 ± 11 nM, the MRT last is 8.89 h and the Tmax was found to be 10 h. The half-life in data set [2] (setting [7]) was 8.26 h. In data set [4], the Tmax turned out to be 9 ± 1.4 h, the “AUC0-t PB” value amounted to 1.8 ± 2.2 pmol·h/g and the “Cmax PB” value worked out at 0.6 ± 0.5 pmol/g tissue.

Take `O=C(O)c1ccc(O)cc1O` [2,4-dihydroxybenzoic acid]: in data set [1], the occurrence result was “consistently detected in plasma and brain at all time points; also recorded: PB, NPB, P”. Moreover, in data set [3] (setting [6]), the Tmax amounted to 14 ± 15 h. Besides, the MRT last in data set [3] (male, Sprague-Dawley, rat, 22 mg extract blend per capsule, one capsule per animal, read-out: MRT0-t NPB) worked out at 7.9 ± 1.1 h. Further, the half-life in data set [3] (male, Sprague-Dawley, rat, 22 mg extract blend per capsule, one capsule per animal, read-out: T1/2 NPB (converted)) is 5.4 ± 3.6 h. In data set [3], the “AUC0-t NPB” value worked out at 92 ± 31 pmol·h/g and the “Cmax NPB” value came to 10 ± 1.2 pmol/g tissue. Further, the “concentration in plasma (approximate)” value in data set [2] is recorded as “around 500 nM”. In data set [2] (setting [7]), the AUC(0-t) was determined as 6.42 ± 1.92 µM·h, the Cmax stood at 534 ± 211 nM, the MRT last turned out to be 22 ± 11 h and the time to peak (Tmax) was 12 ± 11 h. The half-life in data set [2] (setting [7]) is 14 ± 6 h. Moreover, in data set [4], the Tmax is 10 ± 12 h, the “AUC0-t PB” value was 44 ± 17 pmol·h/g, the “Cmax PB” value amounted to 4.3 ± 2.8 pmol/g tissue and the “PB versus NPB comparison” value was “significantly lower AUC values in PB compared to NPB”.

In the case of `O=S(=O)(O)Oc1ccc(CCO)cc1` [tyrosol 4-O-sulfate], the occurrence entry in data set [1] was “PB, NPB, P”. Moreover, in data set [1] (listed as tyrosol 4-sulfate), the occurrence entry was “identified in plasma, perfused brain (PB), and nonperfused brain (NPB)”. Besides, in data set [3], the “AUC0-t NPB” value came out at 31 ± 43 pmol·h/g, the “Cmax NPB” value turned out to be 4.7 ± 6.1 pmol/g tissue, the “MRT0-t NPB” value is reported as 7.4 ± 0.4 h and the “T1/2 NPB” value worked out at 4.5 ± 1.1 h. In addition, in data set [3], the “Tmax NPB” value stood at 2.0 ± 1.4 h. Besides, in data set [2], the AUC0-t plasma was 0.122 ± 0.116 µM·h, the MRT0-t plasma stood at 7.15 ± 3.3 h, the T1/2 plasma amounted to 6.5 ± 1.8 h and the Tmax plasma worked out at 1 ± 0 h. Moreover, in data set [2] (setting [5]), the Cmax was found to be 20 ± 30 nM. Further, in data set [4], the “AUC0-t PB” value was 0.9 ± 1.3 pmol·h/g, the “Cmax PB” value is reported as 0.1 ± 0.08 pmol/g tissue and the “Tmax PB” value is recorded as 2.3 ± 3.2 h.

For `O=C(O)CCc1ccc(O)c(OS(=O)(=O)O)c1` [dihydrocaffeic acid 3-O-sulfate], in data set [1], the occurrence result is listed as “exclusively detected in plasma”. Also, in data set [2], the AUC0-t plasma stood at 0.077 ± 0.031 µM·h, the MRT0-t plasma was found to be 9.0 ± 2.5 h, the T1/2 plasma worked out at 6.0 ± 1.6 h and the Tmax plasma is 4.5 ± 1.7 h. In addition, the Cmax in data set [2] (setting [5]) amounted to 9.6 ± 4.5 nM.

As to `COc1cc(/C=C/C(=O)O)ccc1OS(=O)(=O)O` [ferulic acid 4-O-sulfate], in data set [1], the occurrence entry is “PB, NPB, P”. In data set [3], the “AUC0-t NPB” value amounted to 4.8 ± 2.6 pmol·h/g, the “Cmax NPB” value turned out to be 0.3 ± 0.2 pmol/g tissue and the “Tmax NPB” value came to 1.0 ± 0.0 h. Further, in data set [2], the “plasma concentration relative to p-coumaric acid 4-O-sulfate” value is on record as “approximately 3 fold”, the AUC0-t plasma was found to be 1.114 ± 0.459 µM·h, the MRT0-t plasma is listed as 14 ± 5.1 h and the T1/2 plasma is 12 ± 6.3 h. Also, the Tmax plasma in data set [2] turned out to be 4.2 ± 1.6 h. The Cmax in data set [2] (setting [5]) came out at 129 ± 107 nM. For the same compound, in data set [4], the “AUC0-t PB” value is 3.0 ± 0.5 pmol·h/g, the “Cmax PB” value is listed as 0.2 ± 0.1 pmol/g tissue, the “Tmax PB” value is reported as 12 ± 11 h and the “PB versus NPB comparison” value was “significantly lower AUC values in PB compared to NPB”.
